Source: US10927123B2, “Modulators of the beta-3 adrenergic receptor useful for the treatment or prevention of disorders related thereto” (Arena Pharmaceuticals, Inc., priority 2016, dated 2021)

The compounds below were run against Beta-3 Adrenergic Receptor (Homo sapiens (Human), UniProt P13945) (assay: HTRF cAMP antagonist assay (IC50 determination)). Settings: CHO-K1 cells stably expressing recombinant receptor; antagonism of isoproterenol at EC90; cAMP readout.
Format: cell-based
Summary of the method: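 CHO-K1 cells stably expressing receptor, 1500 cells/well, preincubated briefly with 10-point 5-fold compound series (top final typically 10 or 100 μM) in PBS with 1 mM IBMX, then challenged with isoproterenol at EC90 for 1 h at room temperature. cAMP read by HTRF against on-plate standard curve; IC50 from dose-response.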

Beta-3 Adrenergic Receptor, sequence (P13945 whole entry, species assumed): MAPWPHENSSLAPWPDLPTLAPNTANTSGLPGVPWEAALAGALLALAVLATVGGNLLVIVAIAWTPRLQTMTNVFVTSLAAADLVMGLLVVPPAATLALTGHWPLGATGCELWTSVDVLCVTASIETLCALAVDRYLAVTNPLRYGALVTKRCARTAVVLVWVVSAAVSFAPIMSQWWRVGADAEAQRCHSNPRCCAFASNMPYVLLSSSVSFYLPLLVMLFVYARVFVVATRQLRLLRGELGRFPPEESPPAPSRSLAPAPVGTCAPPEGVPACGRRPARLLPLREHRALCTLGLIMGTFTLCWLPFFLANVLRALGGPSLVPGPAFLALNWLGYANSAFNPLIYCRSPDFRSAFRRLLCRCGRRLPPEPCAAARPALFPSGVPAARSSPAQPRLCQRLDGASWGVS

| SMILES | IC50 [µM] |
| --- | --- |
| CS(=O)(=O)c1cccc(OC[C@@H](O)CNC2COC3(CCN(S(=O)(=O)c4cccc(-c5cn[nH]c5)c4)CC3)C2)c1 (stereo partly drawn) [Compound 37, (2S)-1-(8-(3-(1H-pyrazol-4-yl)phenylsulfonyl)-1-oxa-8-azaspiro[4.5]decan-3-ylamino)-3-(3-(methylsulfonyl)phenoxy)propan-2-ol] | 0.00937 |
| C=CS(=O)(=O)c1cccc(OC[C@@H](O)CN[C@H]2COC3(CCN(S(=O)(=O)c4cnc5ccccc5c4)CC3)C2)c1 [Compound 92, (S)-1-((R)-8-(quinolin-3-ylsulfonyl)-1-oxa-8-azaspiro[4.5]decan-3-ylamino)-3-(3-(vinylsulfonyl)phenoxy)propan-2-ol] | 0.0269 |
| O=S(=O)(c1cccc(OC[C@@H](O)CN[C@H]2COC3(CCN(S(=O)(=O)c4cnc5c(c4)CCCC5)CC3)C2)c1)C1CC1 [Compound 282, (S)-1-(3-(cyclopropylsulfonyl)phenoxy)-3-((R)-8-(5,6,7,8-tetrahydroquinolin-3-ylsulfonyl)-1-oxa-8-azaspiro[4.5]decan-3-ylamino)propan-2-ol] | 0.0237 |
| CS(=O)(=O)c1cccc(OC[C@@H](O)CN[C@@H]2COC3(CCN(S(=O)(=O)c4ccc5ccccc5c4)CC3)C2)c1 [Compound 4, (S)-1-(3-(methylsulfonyl)phenoxy)-3-((S)-8-(naphthalen-2-ylsulfonyl)-1-oxa-8-azaspiro[4.5]decan-3-ylamino)propan-2-ol] | 0.00445 |
| CS(=O)(=O)Cc1cccc(OC[C@@H](O)CN[C@H]2COC3(CCN(S(=O)(=O)c4cnc5ccccc5c4)CC3)C2)c1 [Compound 95, (S)-1-(3-(methylsulfonylmethyl)phenoxy)-3-((R)-8-(quinolin-3-ylsulfonyl)-1-oxa-8-azaspiro[4.5]decan-3-ylamino)propan-2-ol] | 0.0211 |
| O=S(=O)(c1cccc(OC[C@@H](O)CN[C@H]2COC3(CCN(S(=O)(=O)c4cnc5ccccc5c4)CC3)C2)c1)C1CCC1 [Compound 138, (S)-1-(3-(cyclobutylsulfonyl)phenoxy)-3-((R)-8-(quinolin-3-ylsulfonyl)-1-oxa-8-azaspiro[4.5]decan-3-ylamino)propan-2-ol] | 0.0204 |
| Cc1noc(C)c1S(=O)(=O)N1CCC2(CC1)CC(NC[C@H](O)COc1cccc(S(C)(=O)=O)c1)CO2 (stereo partly drawn) [Compound 52, (2S)-1-(8-(3,5-dimethylisoxazol-4-ylsulfonyl)-1-oxa-8-azaspiro[4.5]decan-3-ylamino)-3-(3-(methylsulfonyl)phenoxy)propan-2-ol] | 0.0612 |
| NCCc1ccc(-c2cccc(S(=O)(=O)N3CCC4(CC3)C[C@H](NC[C@H](O)COc3cccc(S(=O)(=O)C(F)(F)CO)c3)CO4)c2)cc1 [Compound 210, (S)-1-((S)-8-(4′-(2-aminoethyl)biphenyl-3-ylsulfonyl)-1-oxa-8-azaspiro[4.5]decan-3-ylamino)-3-(3-(1,1-difluoro-2-hydroxyethylsulfonyl)phenoxy)propan-2-ol] | 0.0224 |
| CCn1cc(S(=O)(=O)N2CCC3(CC2)C[C@@H](NC[C@H](O)COc2cccc(S(=O)(=O)C4CC4)c2)CO3)c(=O)c2cc(F)ccc21 [Compound 314, 3-((R)-3-((S)-3-(3-(cyclopropylsulfonyl)phenoxy)-2-hydroxypropylamino)-1-oxa-8-azaspiro[4.5]decan-8-ylsulfonyl)-1-ethyl-6-fluoroquinolin-4(1H)-one] | 0.27 |
| CS(=O)(=O)c1cccc(OC[C@@H](O)CNC2COC3(CCN(S(=O)(=O)c4ccc5ccccc5c4)CC3)C2)c1 (stereo partly drawn) [Compound 1, (2S)-1-(3-(methylsulfonyl)phenoxy)-3-(8-(naphthalen-2-ylsulfonyl)-1-oxa-8-azaspiro[4.5]decan-3-ylamino)propan-2-ol] | 0.00442 |
| CCCNCc1ccc(-c2cccc(S(=O)(=O)N3CCC4(CC3)C[C@H](NC[C@H](O)COc3cccc(S(=O)(=O)C5(CO)CC5)c3)CO4)c2)cc1 [Compound 244, (S)-1-(3-(1-(hydroxymethyl)cyclopropylsulfonyl)phenoxy)-3-((S)-8-(4′-((propylamino)methyl)biphenyl-3-ylsulfonyl)-1-oxa-8-azaspiro[4.5]decan-3-ylamino)propan-2-ol] | 0.0278 |
| CC(C)CNCc1ccc(-c2cccc(S(=O)(=O)N3CCC4(CC3)CC(NC[C@H](O)COc3cccc(S(C)(=O)=O)c3)CO4)c2)cc1 (stereo partly drawn) [Compound 81, (2S)-1-(8-(4′-((isobutylamino)methyl)biphenyl-3-ylsulfonyl)-1-oxa-8-azaspiro[4.5]decan-3-ylamino)-3-(3-(methylsulfonyl)phenoxy)propan-2-ol] | 0.0278 |
| CC(C)(CN)c1ccc(-c2cccc(S(=O)(=O)N3CCC4(CC3)C[C@@H](NC[C@H](O)COc3cccc(S(=O)(=O)C5(CO)CC5)c3)CO4)c2)cc1 [Compound 181, (S)-1-((R)-8-(4′-(1-amino-2-methylpropan-2-yl)biphenyl-3-ylsulfonyl)-1-oxa-8-azaspiro[4.5]decan-3-ylamino)-3-(3-(1-(hydroxymethyl)cyclopropylsulfonyl)phenoxy)propan-2-ol] | 0.18 |
| CCOc1ccc(-c2ccc(C3(N)CC3)cc2)cc1S(=O)(=O)N1CCC2(CC1)C[C@H](NC[C@H](O)COc1cccc(S(=O)(=O)CC)c1)CO2 [Compound 256, (S)-1-((S)-8-(4′-(1-aminocyclopropyl)-4-ethoxybiphenyl-3-ylsulfonyl)-1-oxa-8-azaspiro[4.5]decan-3-ylamino)-3-(3-(ethylsulfonyl)phenoxy)propan-2-ol] | 0.0326 |
| CCn1cc(S(=O)(=O)N2CCC3(CC2)C[C@@H](NC[C@H](O)COc2cccc(S(=O)(=O)C4CC4)c2)CO3)c(=O)c2ccc(F)cc21 [Compound 316, 3-((R)-3-((S)-3-(3-(cyclopropylsulfonyl)phenoxy)-2-hydroxypropylamino)-1-oxa-8-azaspiro[4.5]decan-8-ylsulfonyl)-1-ethyl-7-fluoroquinolin-4(1H)-one] | 0.0638 |
| CCOc1ccc(-c2ccc(C(C)(C)CN)cc2)cc1S(=O)(=O)N1CCC2(CC1)C[C@@H](NC[C@H](O)COc1cccc(S(=O)(=O)C3(CO)CC3)c1)CO2 [Compound 174, (S)-1-((R)-8-(4′-(1-amino-2-methylpropan-2-yl)-4-ethoxybiphenyl-3-ylsulfonyl)-1-oxa-8-azaspiro[4.5]decan-3-ylamino)-3-(3-(1-(hydroxymethyl)cyclopropylsulfonyl)phenoxy)propan-2-ol] | 0.699 |
| CS(=O)(=O)c1cccc(OC[C@@H](O)CNC2COC3(CCN(C(=O)Cc4csc(N)n4)CC3)C2)c1 (stereo partly drawn) [Compound 56, 2-(2-aminothiazol-4-yl)-1-(3-((S)-2-hydroxy-3-(3-(methylsulfonyl)phenoxy)propylamino)-1-oxa-8-azaspiro[4.5]decan-8-yl)ethanone] | 1.99 |
| O=S(=O)(CCO)c1cccc(OC[C@@H](O)CN[C@H]2COC3(CCN(S(=O)(=O)c4ccc(-c5ccccn5)cc4)CC3)C2)c1 [Compound 102, (S)-1-(3-(2-hydroxyethylsulfonyl)phenoxy)-3-((R)-8-(4-(pyridin-2-yl)phenylsulfonyl)-1-oxa-8-azaspiro[4.5]decan-3-ylamino)propan-2-ol] | 0.114 |
| O=S(=O)(CCO)c1cccc(OC[C@@H](O)CN[C@H]2COC3(CCN(S(=O)(=O)c4cccc(-c5cccc(C(F)(F)F)n5)c4)CC3)C2)c1 [Compound 125, (S)-1-(3-(2-hydroxyethylsulfonyl)phenoxy)-3-((R)-8-(3-(6-(trifluoromethyl)pyridin-2-yl)phenylsulfonyl)-1-oxa-8-azaspiro[4.5]decan-3-ylamino)propan-2-ol] | 0.0488 |
